Source: PubChem BioAssay (NCI)
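Here, GI50 denotes the concentration required for 50% inhibition of growth. TGI: concentration producing complete growth inhibition.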

Tests used:
Experiment in all cases: NCI-60 cell line screen, 384-well format
[1] = system: A498 renal
[2] = system: A549 NSCLC
[3] = system: ACHN renal
[4] = system: BT-549 breast
[5] = system: CAKI-1 renal
[6] = system: COLO 205 colon
[7] = system: DU-145 prostate
[8] = system: EKVX NSCLC
[9] = system: HCC-2998 colon
[10] = system: HCT-116 colon
[11] = system: HCT-15 colon
[12] = system: HL-60(TB) leukemia
[13] = system: HOP-62 NSCLC
[14] = system: HOP-92 NSCLC
[15] = system: HS 578T breast
[16] = system: HT29 colon
[17] = system: IGROV1 ovarian
[18] = system: KM12 colon
[19] = system: LOX IMVI melanoma
[20] = system: M14 melanoma
[21] = system: MALME-3M melanoma
[22] = system: MCF7 breast
[23] = system: MDA-MB-231 breast
[24] = system: MDA-MB-435 melanoma
[25] = system: MDA-MB-468 breast
[26] = system: MOLT-4 leukemia
[27] = system: NCI-H226 lung
[28] = system: NCI-H23 lung
[29] = system: NCI-H322M lung
[30] = system: NCI-H460 NSCLC
[31] = system: NCI-H522 lung
[32] = system: NCI/ADR-RES ovarian
[33] = system: OVCAR-3 ovarian
[34] = system: OVCAR-4 ovarian
[35] = system: OVCAR-5 ovarian
[36] = system: OVCAR-8 ovarian
[37] = system: PC-3 prostate
[38] = system: RPMI-8226 leukemia
[39] = system: RXF 393 renal
[40] = system: SF-268 CNS
[41] = system: SF-295 CNS
[42] = system: SF-539 CNS
[43] = system: SK-MEL-28 melanoma
[44] = system: SK-MEL-5 melanoma
[45] = system: SK-OV-3 ovarian
[46] = system: SN12C renal
[47] = system: SNB-19 CNS
[48] = system: SNB-75 CNS
[49] = system: SR leukemia
[50] = system: T-47D breast
[51] = system: TK-10 renal
[52] = system: U251 glioblastoma
[53] = system: UACC-257 melanoma
[54] = system: UACC-62 melanoma

## N[C@@H]1CCCN(c2c(/C=C3\SC(=O)NC3=O)cccc2-c2ccccc2)C1
[1]
  GI50: 16.6 µM
  TGI: 30.3 µM
[2]
  GI50: 16.7 µM
  TGI: 30.8 µM
[3]
  GI50: 17.7 µM
  TGI: 31.7 µM
[4]
  GI50: 1.9 µM
  TGI: 4.17 µM
[5]
  GI50: 18.5 µM
  TGI: 32.8 µM
[6]
  GI50: 14.1 µM
  TGI: 27.1 µM
[7]
  GI50: 16.9 µM
  TGI: 30.7 µM
[8]
  GI50: 16.4 µM
  TGI: 30 µM
[9]
  GI50: 14.5 µM
  TGI: 27.7 µM
[10]
  GI50: 15.4 µM
  TGI: 28.9 µM
[11]
  GI50: 17.7 µM
  TGI: 31.7 µM
[12]
  GI50: 1.31 µM
  TGI: 16.5 µM
[13]
  GI50: 11.7 µM
  TGI: 23.9 µM
[14]
  GI50: 11.5 µM
  TGI: 23.8 µM
[15]
  GI50: 13.8 µM
  TGI: 26.8 µM
[16]
  GI50: 15.2 µM
  TGI: 28.8 µM
[17]
  GI50: 17.1 µM
  TGI: 31.2 µM
[18]
  GI50: 16.9 µM
  TGI: 30.8 µM
[19]
  GI50: 17.8 µM
  TGI: 31.6 µM
[20]
  GI50: 14.6 µM
  TGI: 27.8 µM
[21]
  GI50: 12.9 µM
  TGI: 25.7 µM
[22]
  GI50: 14.5 µM
  TGI: 27.8 µM
[23]
  GI50: 14.5 µM
  TGI: 27.8 µM
[24]
  GI50: 15.1 µM
  TGI: 28.5 µM
[25]
  GI50: 14.6 µM
  TGI: 27.8 µM
[26]
  GI50: 13.4 µM
  TGI: 26.3 µM
[27]
  GI50: 13.8 µM
  TGI: 26.7 µM
[28]
  GI50: 16.8 µM
  TGI: 30.6 µM
[29]
  GI50: 18 µM
  TGI: 31.9 µM
[30]
  GI50: 16.8 µM
  TGI: 30.6 µM
[31]
  GI50: 13.5 µM
  TGI: 26.4 µM
[32]
  GI50: 18.1 µM
  TGI: 33.1 µM
[33]
  GI50: 13.1 µM
  TGI: 25.9 µM
[34]
  GI50: 12.3 µM
  TGI: 25.3 µM
[35]
  GI50: 17 µM
  TGI: 30.8 µM
[36]
  GI50: 16.2 µM
  TGI: 29.9 µM
[37]
  GI50: 13.2 µM
  TGI: 26 µM
[38]
  GI50: 0.543 µM
  TGI: 3.07 µM
[39]
  GI50: 17 µM
  TGI: 30.8 µM
[40]
  GI50: 16.8 µM
  TGI: 30.6 µM
[41]
  GI50: 6.08 µM
  TGI: 18.7 µM
[42]
  GI50: 7.38 µM
  TGI: 20.2 µM
[43]
  GI50: 16.9 µM
  TGI: 30.7 µM
[44]
  GI50: 11.4 µM
  TGI: 23.5 µM
[45]
  GI50: 14.8 µM
  TGI: 28.5 µM
[46]
  GI50: 19.4 µM
  TGI: 33.6 µM
[47]
  GI50: 4.67 µM
  TGI: 15 µM
[48]
  GI50: 3.5 µM
  TGI: 12.1 µM
[49]
  GI50: 1.16 µM
  TGI: 15.5 µM
[50]
  GI50: 15.6 µM
  TGI: 29 µM
[51]
  GI50: 12.3 µM
  TGI: 24.9 µM
[52]
  GI50: 8.54 µM
  TGI: 20.8 µM
[53]
  GI50: 15.9 µM
  TGI: 29.4 µM
[54]
  GI50: 16.6 µM
  TGI: 30.4 µM
